Drawing on ChEMBL document CHEMBL1139127, “Structural modifications of (1S,3S)-3-amino-4-difluoromethylenecyclopentanecarboxylic acid, a potent irreversible inhibitor of GABA aminotransferase” (Bioorg Med Chem Lett, 2007), this text covers Activity for 1 compound.

Calls of active or inactive are those of the source. No cut-off for these calls is given here.

The target in experiment [1] is 4-aminobutyrate aminotransferase, mitochondrial (Homo sapiens) (UniProt P80404). In words: Inhibition of GABA-AT at 1.7 mM.
Chain of 4-aminobutyrate aminotransferase, mitochondrial (Homo sapiens) (P80404 whole entry): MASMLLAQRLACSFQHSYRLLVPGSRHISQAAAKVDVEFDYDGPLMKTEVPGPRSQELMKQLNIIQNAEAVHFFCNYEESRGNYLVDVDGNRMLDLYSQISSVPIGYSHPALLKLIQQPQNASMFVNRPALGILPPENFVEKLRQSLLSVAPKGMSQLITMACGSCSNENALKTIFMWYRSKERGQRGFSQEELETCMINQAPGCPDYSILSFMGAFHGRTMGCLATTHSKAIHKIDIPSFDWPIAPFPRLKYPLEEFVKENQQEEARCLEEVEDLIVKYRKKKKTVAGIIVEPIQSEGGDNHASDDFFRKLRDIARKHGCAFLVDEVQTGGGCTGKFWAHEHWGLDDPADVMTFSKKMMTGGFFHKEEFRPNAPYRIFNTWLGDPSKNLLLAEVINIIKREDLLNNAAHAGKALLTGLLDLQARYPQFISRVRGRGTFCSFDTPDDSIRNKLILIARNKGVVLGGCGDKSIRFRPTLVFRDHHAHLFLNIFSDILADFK
Experiment [2] has the same target. In words: Inhibition of GABA-AT at 10 mM assessed as residual activity.

`N[C@H]1C[C@@H](C(=O)O)CC1=C(Cl)Cl`: the result in experiment [1] was inactive. The Activity in experiment [2] was 58%.
